Like-named read-outs stand apart in the source and are kept apart here.
Columns and labels:
Format in all cases: in vivo
[1] = tested on: 6C3HED lymphosarcoma; test: animal or person; details: for inhibition in vivo at 50 mg/kg: read-out: % inhibition of tumor growth, oral, 50 mg/kg, BIDX 8; for inhibition in vivo at 75 mg/kg: read-out: % inhibition of tumor growth, oral, 75 mg/kg, DX 8; for inhibition in vivo at 100 mg/kg: read-out: % inhibition of tumor growth, oral, 100 mg/kg, BIDX 8; for inhibition in vivo at 200 mg/kg: read-out: % inhibition of tumor growth, oral, 200 mg/kg, BIDX 8; for inhibition in vivo at 600 mg/kg: read-out: % inhibition of tumor growth, oral, 600 mg/kg, DX 8
Experimental: (§1) The compounds were tested in C3H mice bearing a 6C3HED lymphosarcoma, also known as the Gardner lymphosarcoma (GLS), and in a variety of human tumor xenografts in CD1 nu/nu mice, including CX-1, LX-1, HXGC3, and VRC5. The 6C3HED lymphosarcoma was obtained from the Division of Cancer Treatment, National […] Institute, Tumor Bank, maintained at E. G. and G. Mason Research (Worcester, Mass.). The CX-1 human colon carcinoma and the LX-1 human lung carcinoma xenografts were obtained from the National Cancer Institute. The HXGC3 and VRC5 human colon xenografts were obtained from Dr. P. J. Houghton, St. Jude Children's Hospital in Memphis (see Br. J. Cancer, 37, 213 (1978)). First passage tumor was stored in liquid nitrogen using standard techniques. The transplanted tumor was reestablished from the Tumor Bank every six months or as needed. The tumor was maintained by serial passage twice weekly in C3H mice.
(§2) In the procedure the tumor was removed from passage animals and minced into 1- to 3-mm square fragments using sterile techniques. Tumor pieces were checked for sterility using both Antibiotic Medium 1 and Brain Heart Infusion (Difco, Detroit, Mich.). Recipient mice were shaved and tumor pieces were implanted subcutaneously in the auxiliary region by trocar. Drug therapy on the appropriate schedule was initiated on the day after tumor implant for 6C3HED and after a seven (7) day delay for xenografts (or other delay as noted in Table 2). The compound being tested was mixed with 2.5% Emulphor EL620 from GAF Corporation (1:40 dilution in saline). Food and water were provided ad libitium. The drug was administered orally in 0.5 ml of 2.5% Emulphor (unless otherwise indicated). The tumor was measured the day after treatment ended with two dimensional measurements (width and length) of the tumor taken using automated digital calipers interfaced to a microcomputer. Approximate weight for the tumor was calculated using the following formula [Worzalla, J. F., et al., Invest. New Drugs, 8, 241 (1990], (tumor weight in mg)=(width in mm)^2 ×(length in mm)/2.
(§3) At least one control group of an equal number of mice was treated with the same volume of 2.5% Emulphor only. The percent inhibition was determined by subtracting the ratio of the mean tumor size of the test group relative to the control group from one and multiplying the result times 100.
(§4) The results of several experiments in mice bearing a 6C3HED lymphosarcoma (or other tumor where indicated) when the indicated compounds were administered are provided in Table 2. In Table 2, column 1 gives the Example number of the compound used, column 2 lists the dose level in mg/kg, column 3 provides the percent inhibition of tumor growth, column 4 gives the number of mice which died relative to the total number of animals in the group, column 5 gives the method of administration of the compound, and column 6 gives the dosage schedule. The protocol used with other tumors was the same as with the 6C3HED lymphosarcoma.

[2] = tested on: HC1
Experimental: as §1, §2, §3, §4

[3] = tested on: LX1
Experimental: as §1, §2, §3, §4

[4] = Mus musculus, 6C3HED, po, read-out: % inhibition of tumor growth, oral, 150 mg/kg, DX 8
[5] = Mus musculus, 6C3HED, po, read-out: % inhibition of tumor growth, oral, 300 mg/kg, DX 8
[6] = oral, 500 mg/kg, BIDX 14, from day 14 after implant
[7] = oral, 3 mg/kg, BIDX 14, from day 7 after implant

Cc1ccc(S(=N)(=O)NC(=O)Nc2ccc(Cl)cc2)cc1 (stereo not drawn) [Example 2, N-[[(4-chlorophenyl)amino]carbonyl]-4-methylbenzenesulfonimidamide]
Tox/Tot (mice which died / total) ([1]; IP, 150 mg/kg, DX 8): 1/10 | Tox/Tot (mice which died / total) ([1]; IP, 300 mg/kg, DX 8): 6/10 | Tox/Tot (mice which died / total) ([1]; IV, 12.5 mg/kg, DX 8): 0/10 | Tox/Tot (mice which died / total) ([1]; IV, 25 mg/kg, DX 8): 1/10 | inhibition in vivo at 150 mg/kg ([1]; Mus musculus, 6C3HED, ip, read-out: % inhibition of tumor growth, IP, 150 mg/kg, DX 8): 92% | inhibition in vivo at 300 mg/kg ([1]; Mus musculus, 6C3HED, ip, read-out: % inhibition of tumor growth, IP, 300 mg/kg, DX 8): 98% | inhibition in vivo at 12.5 mg/kg ([1]; Mus musculus, 6C3HED, iv, read-out: % inhibition of tumor growth, IV, 12.5 mg/kg, DX 8): 36% | inhibition in vivo at 25 mg/kg ([1]; Mus musculus, 6C3HED, iv, read-out: % inhibition of tumor growth, IV, 25 mg/kg, DX 8): 52% | inhibition in vivo at 50 mg/kg ([1]; Mus musculus, 6C3HED, po): 95% | inhibition in vivo at 75 mg/kg ([1]; Mus musculus, 6C3HED, po): 76% | inhibition in vivo at 100 mg/kg ([1]; Mus musculus, 6C3HED, po): 96% | inhibition in vivo at 150 mg/kg [1, 4]: 74% | inhibition in vivo at 200 mg/kg ([1]; Mus musculus, 6C3HED, po): 98% | inhibition in vivo at 300 mg/kg [1, 5]: 82% | inhibition in vivo at 400 mg/kg ([1]; Mus musculus, 6C3HED, po, read-out: % inhibition of tumor growth, oral, 400 mg/kg, BIDX 8): 99% | inhibition in vivo at 600 mg/kg ([1]; Mus musculus, 6C3HED, po): 99% | inhibition in vivo at 800 mg/kg ([1]; Mus musculus, 6C3HED, po, read-out: % inhibition of tumor growth, oral, 800 mg/kg, BIDX 8): 99% | inhibition in vivo at 1200 mg/kg ([1]; Mus musculus, 6C3HED, po, read-out: % inhibition of tumor growth, oral, 1200 mg/kg, DX 8): 100% | Tox/Tot (mice which died / total) ([1]; oral, 50 mg/kg, BIDX 8): 0/10 | Tox/Tot (mice which died / total) ([1]; oral, 75 mg/kg, DX 8): 0/10 | Tox/Tot (mice which died / total) ([1]; oral, 100 mg/kg, BIDX 8): 0/10 | % inhibition of tumor growth ([1]; oral, 150 mg/kg, DX 8): 93% | Tox/Tot (mice which died / total) ([1]; oral, 150 mg/kg, DX 8): 0/10 | Tox/Tot (mice which died / total) ([1]; oral, 200 mg/kg, BIDX 8): 0/10 | % inhibition of tumor growth ([1]; oral, 300 mg/kg, DX 8): 95% | Tox/Tot (mice which died / total) ([1]; oral, 300 mg/kg, DX 8): 0/10 | Tox/Tot (mice which died / total) ([1]; oral, 400 mg/kg, BIDX 8): 0/10 | Tox/Tot (mice which died / total) ([1]; oral, 600 mg/kg, DX 8): 0/10 | Tox/Tot (mice which died / total) ([1]; oral, 800 mg/kg, BIDX 8): 1/10 | Tox/Tot (mice which died / total) ([1]; oral, 1200 mg/kg, DX 8): 0/10 | Tox/Tot (mice which died / total) ([2]; oral, 250 mg/kg, BIDX 14, from day 14 after implant): 2/9 | % inhibition of tumor growth [2, 6]: TOX | Tox/Tot (mice which died / total) [2, 6]: 9/9 | % inhibition of tumor growth ([2]; po, 250 mg/kg, 336 h): 68% | % inhibition of tumor growth [3, 7]: 24% | Tox/Tot (mice which died / total) [3, 7]: 0/10 | Tox/Tot (mice which died / total) ([3]; oral, 10 mg/kg, BIDX 14, from day 7 after implant): 0/10 | Tox/Tot (mice which died / total) ([3]; oral, 30 mg/kg, BIDX 14, from day 7 after implant): 0/10 | Tox/Tot (mice which died / total) ([3]; oral, 100 mg/kg, BIDX 14, from day 7 after implant): 0/10 | Tox/Tot (mice which died / total) ([3]; oral, 300 mg/kg, BIDX 14, from day 7 after implant): 5/10 | % inhibition of tumor growth ([3]; po, 10 mg/kg, 168 h): 18% | % inhibition of tumor growth ([3]; po, 30 mg/kg, 168 h): 28% | % inhibition of tumor growth ([3]; po, 100 mg/kg, 168 h): 51% | % inhibition of tumor growth ([3]; po, 300 mg/kg, 168 h): 66%

CN=S(=O)(NC(=O)Nc1ccc(Cl)cc1)c1ccc(C)cc1 (stereo not drawn) [Example 3, N-[[(4-Chlorophenyl)amino]carbonyl]-N',4-dimethylbenzenesulfonimidamide]
inhibition in vivo at 12.5 mg/kg ([1]; Mus musculus, 6C3HED, po, read-out: % inhibition of tumor growth, oral, 12.5 mg/kg, BIDX 8): 58% | inhibition in vivo at 25 mg/kg ([1]; Mus musculus, 6C3HED, po, read-out: % inhibition of tumor growth, oral, 25 mg/kg, BIDX 8): 82% | inhibition in vivo at 50 mg/kg ([1]; Mus musculus, 6C3HED, po): 91% | inhibition in vivo at 75 mg/kg ([1]; Mus musculus, 6C3HED, po): 81% | inhibition in vivo at 100 mg/kg ([1]; Mus musculus, 6C3HED, po): 99% | inhibition in vivo at 150 mg/kg [1, 4]: 93% | inhibition in vivo at 200 mg/kg ([1]; Mus musculus, 6C3HED, po): 100% | inhibition in vivo at 300 mg/kg [1, 5]: 99% | inhibition in vivo at 600 mg/kg ([1]; Mus musculus, 6C3HED, po): 100% | Tox/Tot (mice which died / total) ([1]; oral, 12.5 mg/kg, BIDX 8): 0/10 | Tox/Tot (mice which died / total) ([1]; oral, 25 mg/kg, BIDX 8): 0/10 | Tox/Tot (mice which died / total) ([1]; oral, 50 mg/kg, BIDX 8): 0/10 | Tox/Tot (mice which died / total) ([1]; oral, 75 mg/kg, DX 8): 0/10 | Tox/Tot (mice which died / total) ([1]; oral, 100 mg/kg, BIDX 8): 0/10 | % inhibition of tumor growth ([1]; oral, 150 mg/kg, DX 8): 96% | Tox/Tot (mice which died / total) ([1]; oral, 150 mg/kg, DX 8): 1/10 | Tox/Tot (mice which died / total) ([1]; oral, 200 mg/kg, BIDX 8): 0/10 | Tox/Tot (mice which died / total) ([1]; oral, 300 mg/kg, DX 8): 0/10 | Tox/Tot (mice which died / total) ([1]; oral, 600 mg/kg, DX 8): 4/10 | % inhibition of tumor growth ([1]; oral, 1200 mg/kg, DX 8): TOX | Tox/Tot (mice which died / total) ([1]; oral, 1200 mg/kg, DX 8): 10/10 | % inhibition of tumor growth ([3]; oral, 150 mg/kg, BIDX 10): TOX | Tox/Tot (mice which died / total) ([3]; oral, 150 mg/kg, BIDX 10): 8/8 | % inhibition of tumor growth ([3]; oral, 300 mg/kg, BIDX 10): TOX | Tox/Tot (mice which died / total) ([3]; oral, 300 mg/kg, BIDX 10): 8/8

From patent publication US5258406A, “Sulfonimidamides” (priority 1992, dated 1993)
